Reference: PubChem BioAssay AID330 (DTP/NCI, 2004)
“And” between values parts separate entries of the source, which are not always exact repeats. Identical values can stand only once. Toxic doses and inconclusive results are not listed. Rule for the calls: active = survival T/C of 150% or more; inactive = T/C below 125% in these data.

Tested on: P388 leukemia ip, CD2F1 mice, survival T/C
Assay: NCI In Vivo Anticancer Drug Screen. Data for tumor model P388 Leukemia (intraperitoneal) in CD2F1 (CDF1) mice
Conditions: endpoint: median survival time, higher = longer survival
How it was run: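 Mice carrying the transplanted tumor received test compound or vehicle. Survival was recorded in each group, and the value is the treated-group measurement divided by that of the vehicle-treated control group.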

[1] = dose: 50.0 mg/kg/injection, schedule: Q01DX005 (ip), vehicle: saline
[2] = dose: 100.0 mg/kg/injection, schedule: Q01DX005 (ip), vehicle: saline
[3] = dose: 50.0 mg/kg/injection, schedule: Q01DX009 (ip), vehicle: Klucel (hydroxypropylcellulose) (HPC)
[4] = dose: 100.0 mg/kg/injection, schedule: Q01DX009 (ip), vehicle: Klucel (hydroxypropylcellulose) (HPC)
[5] = dose: 200.0 mg/kg/injection, schedule: Q01DX009 (ip), vehicle: Klucel (hydroxypropylcellulose) (HPC)
[6] = dose: 50.0 mg/kg/injection, schedule: Q01DX009 (ip), vehicle: saline with Tween-80
[7] = dose: 100.0 mg/kg/injection, schedule: Q01DX009 (ip), vehicle: saline with Tween-80
[8] = dose: 200.0 mg/kg/injection, schedule: Q01DX009 (ip), vehicle: saline with Tween-80
[9] = dose: 30.0 mg/kg/injection, schedule: Q01DX005 (ip), vehicle: Klucel (hydroxypropylcellulose) (HPC)
[10] = dose: 60.0 mg/kg/injection, schedule: Q01DX005 (ip), vehicle: Klucel (hydroxypropylcellulose) (HPC)
[11] = dose: 120.0 mg/kg/injection, schedule: Q01DX005 (ip), vehicle: Klucel (hydroxypropylcellulose) (HPC)
[12] = dose: 240.0 mg/kg/injection, schedule: Q01DX005 (ip), vehicle: Klucel (hydroxypropylcellulose) (HPC)
[13] = dose: 60.0 mg/kg/injection, schedule: Q01DX005 (ip), vehicle: saline with Tween-80
[14] = dose: 120.0 mg/kg/injection, schedule: Q01DX005 (ip), vehicle: saline with Tween-80

Measured: T/C

NC(=Nc1ccccc1)NNC=O
inactive: [1] 102 % of control | [2] 104 % of control | dose: 200.0 mg/kg/injection, schedule: Q01DX005 (ip), vehicle: saline 100 % of control

COC1(OC)C=NNc2nncn21
inactive: [1] 105 % of control | [2] 107 % of control

COC(=O)c1ccccc1NC(CCN1CCN(CCC(=NC(C)(C)C)Nc2ccccc2C(=O)OC)CC1)=NC(C)(C)C
inactive: [3] 93 % of control | [4] 96 % of control | [5] 92 % of control

OC1(c2cccnc2)C=CCC1 (stereo unspecified)
inactive: [6] 100 % of control | [7] 102 % of control | [8] 100 % of control

Cc1cccc(/C=N/Nc2cc(C)nc3ccccc23)n1
inactive: [3] 109 % of control | [4] 118 % of control | [5] 117 % of control

C(#CP(C#Cc1ccccc1)C#Cc1ccccc1)c1ccccc1
inactive: [6] 103 % of control | [7] 92 % of control | [8] 94 % of control | dose: 400.0 mg/kg/injection, schedule: Q01DX009 (ip), vehicle: saline with Tween-80 86 % of control

COc1ccc(C2CC(=O)NC(N)=N2)c(O)c1 (stereo unspecified)
inactive: dose: 50.0 mg/kg/injection, schedule: Q01DX009 (ip), vehicle: saline 103 % of control | dose: 100.0 mg/kg/injection, schedule: Q01DX009 (ip), vehicle: saline 104 % of control | dose: 200.0 mg/kg/injection, schedule: Q01DX009 (ip), vehicle: saline 103 % of control

Oc1oc(-c2ccccc2)nc1/C=C1/C(Cl)=Nc2ccccc21
inactive: dose: 100.0 mg/kg/injection, schedule: Q01DX001 (ip), vehicle: saline with Tween-80 99 % of control | dose: 200.0 mg/kg/injection, schedule: Q01DX001 (ip), vehicle: saline with Tween-80 99 % of control | dose: 400.0 mg/kg/injection, schedule: Q01DX001 (ip), vehicle: saline with Tween-80 100 % of control

COC(=O)/C=C\C(=O)O
inactive: dose: 50.0 mg/kg/injection, schedule: Q04DX003 (ip), vehicle: saline 100 % of control | dose: 100.0 mg/kg/injection, schedule: Q04DX003 (ip), vehicle: saline 110 % of control | dose: 200.0 mg/kg/injection, schedule: Q04DX003 (ip), vehicle: saline 120 % of control

O=C1O/C(=C(/C(=O)O)c2ccc(O)cc2)C(O)=C1c1cc2c3c(c(O)cc(C4=C(O)/C(=C(\C(=O)O)c5ccc(O)cc5)OC4=O)c3c1)OC2=O
inactive: dose: 10.25 mg/kg/injection, schedule: Q01DX005 (ip), vehicle: DMSO 94 % of control | dose: 12.0 mg/kg/injection, schedule: Q01DX005 (ip), vehicle: DMSO 98 % of control | dose: 20.5 mg/kg/injection, schedule: Q01DX005 (ip), vehicle: DMSO 110 % of control | dose: 24.0 mg/kg/injection, schedule: Q01DX005 (ip), vehicle: DMSO 106 % of control | dose: 41.0 mg/kg/injection, schedule: Q01DX005 (ip), vehicle: DMSO 106 % of control

CS/C(=C\c1ccc(C(=O)c2ccc(C)cc2)n1C)S(C)=O (stereo unspecified)
inactive: [9] 94 % of control | [10] 91 % of control and 94 % of control | [11] 92 % of control | [12] 88 % of control

Clc1nc2nc3n(c2nc1Cl)CCC3(Br)Br
inactive: [13] 97 % of control | [14] 109 % of control | dose: 240.0 mg/kg/injection, schedule: Q01DX005 (ip), vehicle: saline with Tween-80 103 % of control

C=C1C(=O)OC2C/C(C=O)=C/CC/C(C)=C/C(O)C12 (stereo unspecified)
inactive: dose: 9.0 mg/kg/injection, schedule: Q01DX005 (ip), vehicle: Klucel (hydroxypropylcellulose) (HPC) 96 % of control | dose: 18.0 mg/kg/injection, schedule: Q01DX005 (ip), vehicle: Klucel (hydroxypropylcellulose) (HPC) 99 % of control | dose: 36.0 mg/kg/injection, schedule: Q01DX005 (ip), vehicle: Klucel (hydroxypropylcellulose) (HPC) 105 % of control | dose: 72.0 mg/kg/injection, schedule: Q01DX005 (ip), vehicle: Klucel (hydroxypropylcellulose) (HPC) 106 % of control

COc1cc2c(c(OC)c1OC)-c1c(cc3c(c1OC)OCO3)C1OC2C(C)C1C (stereo unspecified) (tested in a mixture with another compound)
inactive: dose: 25.0 mg/kg/injection, schedule: Q01DX005 (ip), vehicle: Klucel (hydroxypropylcellulose) (HPC) 100 % of control | dose: 50.0 mg/kg/injection, schedule: Q01DX005 (ip), vehicle: Klucel (hydroxypropylcellulose) (HPC) 97 % of control | dose: 100.0 mg/kg/injection, schedule: Q01DX005 (ip), vehicle: Klucel (hydroxypropylcellulose) (HPC) 100 % of control and 101 % of control | dose: 200.0 mg/kg/injection, schedule: Q01DX005 (ip), vehicle: Klucel (hydroxypropylcellulose) (HPC) 103 % of control and 106 % of control | dose: 400.0 mg/kg/injection, schedule: Q01DX005 (ip), vehicle: Klucel (hydroxypropylcellulose) (HPC) 99 % of control

CCC(Br)C(=O)SC(C)(C)C (stereo unspecified)
inactive: dose: 100.0 mg/kg/injection, schedule: Q04DX003 (ip), vehicle: saline with Tween-80 111 % of control | dose: 200.0 mg/kg/injection, schedule: Q04DX003 (ip), vehicle: saline with Tween-80 106 % of control

Cc1cc2nc(/N=C/c3nc(O)c(C)[nH]3)[nH]c2cc1C
inactive: [9] 103 % of control | [10] 98 % of control | [11] 99 % of control | [12] 104 % of control

C=C(CN1CCOCC1)C(=O)c1ccccc1
inactive: dose: 1.89 mg/kg/injection, schedule: Q01DX005 (ip), vehicle: saline 105 % of control | dose: 3.75 mg/kg/injection, schedule: Q01DX005 (ip), vehicle: saline 112 % of control | dose: 7.5 mg/kg/injection, schedule: Q01DX005 (ip), vehicle: saline 100 % of control and 105 % of control

Cc1cc(=O)oc2c3c(c4c(c12)OC(C)(C)C=C4)OC(C)(C)C=C3
inactive: [13] 89 % of control | [14] 88 % of control

c1cc(-n2nnc3cnccc32)ccn1
inactive: dose: 3.12 mg/kg/injection, schedule: Q01DX009 (ip), vehicle: saline 91 % of control | dose: 6.25 mg/kg/injection, schedule: Q01DX009 (ip), vehicle: saline 100 % of control | dose: 6.25 mg/kg/injection, schedule: Q04DX003 (ip), vehicle: saline 109 % of control | dose: 12.5 mg/kg/injection, schedule: Q01DX009 (ip), vehicle: saline 98 % of control | dose: 12.5 mg/kg/injection, schedule: Q04DX003 (ip), vehicle: saline 104 % of control | dose: 25.0 mg/kg/injection, schedule: Q01DX009 (ip), vehicle: suspension in saline 109 % of control | dose: 25.0 mg/kg/injection, schedule: Q04DX003 (ip), vehicle: saline 100 % of control
